pEC50, pIC50, pKi: −log10 of the molar value. The source made the active and inactive calls. The rule behind the calls is not given here.
Assays:
[1] = biological target: Botulinum neurotoxin type A (Clostridium botulinum) (UniProt P0DPI0); conditions: 500 uM
[2] = biological target: T1, Botulinum neurotoxin type A (Clostridium botulinum, UniProt P0DPI0)
[3] = biological target: Botulinum neurotoxin type A (Clostridium botulinum) (UniProt P0DPI0)
[4] = biological target: T1, Botulinum neurotoxin type A; remark: listed apart in the source
[5] = biological target: Botulinum neurotoxin type A (Clostridium botulinum) (UniProt P0DPI0); conditions: 90 uM
[6] = biological target: T1, Botulinum neurotoxin type A; remark: listed apart in the source
[7] = biological target: Botulinum neurotoxin type A (Clostridium botulinum) (UniProt P0DPI0); conditions: 5 uM
[8] = biological target: Botulinum neurotoxin type A (Clostridium botulinum) (UniProt P0DPI0); conditions: 150 uM
[9] = biological target: T1, Botulinum neurotoxin type A; remark: listed apart in the source

Chain of Botulinum neurotoxin type A (Clostridium botulinum) (P0DPI0 2-448 limits assumed): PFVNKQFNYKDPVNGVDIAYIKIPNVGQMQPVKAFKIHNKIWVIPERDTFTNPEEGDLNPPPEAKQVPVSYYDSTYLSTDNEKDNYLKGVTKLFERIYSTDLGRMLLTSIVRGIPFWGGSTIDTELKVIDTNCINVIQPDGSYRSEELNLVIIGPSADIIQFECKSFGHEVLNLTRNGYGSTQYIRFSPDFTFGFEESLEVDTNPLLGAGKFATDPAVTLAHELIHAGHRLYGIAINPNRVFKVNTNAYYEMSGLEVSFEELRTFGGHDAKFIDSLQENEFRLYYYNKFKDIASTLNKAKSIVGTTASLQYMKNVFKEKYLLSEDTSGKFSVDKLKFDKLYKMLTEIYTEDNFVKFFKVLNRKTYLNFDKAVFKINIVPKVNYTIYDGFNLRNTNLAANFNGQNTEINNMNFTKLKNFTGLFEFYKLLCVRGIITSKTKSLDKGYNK
T1 sequence (P0DPI0 2-448 limits assumed): as above

SMILES | inhibition [1] | IC50 [2] | Ratio IC50 [3] | pEC50 [4] | inhibition [5] [%] | pKi [6] | inhibition [7] | inhibition [8] [%] | pIC50 [9]
Oc1cccc2cccnc12 [OXYQUINOLINE] | inactive | Not Active |  |  |  |  |  |  | 
COC(=O)c1ccc(O)c2nc3c(C=O)c(O)cc(O)c3nc12 [LOMOFUNGIN] |  |  | 20 | 3.88 | 10 | 5.17 | Active | > 70 | ≤ 4.30
